{
  "source": "patent US20220195533A1",
  "about": "“ARYL HYDROCARBON RECEPTOR (AHR) ACTIVATION SIGNATURE AND METHODS FOR DETERMINING AHR SIGNALING STATUS” (DEUTSCHES KREBSFORSCHUNGSZENTRUM STIFTUNG DES OFFENTLICHEN …, priority 2019, published 2022)",
  "test_system": "AHR",
  "assay": "AHR signature gene set testing in tumor tissue of advanced melanoma patients after immune checkpoint inhibition",
  "format": "in vivo, human",
  "conditions": "tumor tissue of advanced melanoma patients after treatment (GSE91061), FIG. 31C",
  "text": "The eBayes adjusted moderated t-statistic was applied for differential gene expression using limma (Ritchie, M E, et al. (2015). limma powers differential expression analyses for RNA-sequencing and microarray studies. Nucleic Acids Research 43(7), e47) and limma-trend (Phipson, B, et al. (2016). Robust hyperparameter estimation protects against hypervariable genes and improves power to detect differential expression. Annals of Applied Statistics 10(2), 946-963) or the limma RNA-seq pipeline (Ritchie, M E, et al. (2015). limma powers differential expression analyses for RNA-sequencing and microarray studies. Nucleic Acids Research 43(7), e47). Batch effects, when present, were accounted for in the linear regression. Gene set testing of AHR activation was performed using roast (Wu, D., et al. (2010). ROAST: rotation gene set tests for complex microarray experiments. Bioinformatics 26, 2176-2182).\nUsing an AHR signature comprising of all the biomarkers in Table 1, allows the detection of AHR modulation caused by both direct and indirect AHR modulators in a cell type and ligand type independent fashion.",
  "data": [
    {"substance": "Nivolumab: immune checkpoint inhibition; indirect modulation of AHR through immunotherapy", "values": [
      {"measurement": "modulation of AHR detected with AHR signature of all Table 1 biomarkers", "result": "indirect modulation of AHR"}
    ]}
  ]
}
